# Patent US20260174777A1, “METHODS OF TREATMENT” (Arena Pharmaceuticals, Inc., priority 2022, published 2026)
# Entries after “also recorded” stand apart in the source; their conditions may differ. Like-named read-outs stand apart in the source and are kept apart here.
# Legend:
# clinical [1] = settings: human, plasma, oral
# [2] = single ascending dose study with healthy subjects: pharmacokinetics
# prolactin [3] = experiment: multiple ascending dose study with healthy subjects: prolactin pharmacodynamics; type: in vivo, human; settings: multiple doses TID
# Experimental: Prolactin serum concentrations were summarized by timepoint, dose and part. Absolute and percent change from baseline in prolactin value was calculated, with predose value on Day 1 considered as the baseline value. Observed prolactin data, absolute and percent change from baseline versus time were plotted.
# [4] = for CL/F Mean / Cav Mean / Ctrough Mean: healthy subjects
# [5] = multiple ascending dose study with healthy subjects: safety and tolerability; type: in vivo, human
# clinical [6] = settings: human; for CL renal: plasma and urine; for half-life / Cmax / Tmax / AUC(0-inf) / Vd/F: plasma
# prolactin [7] = experiment: single ascending dose study with healthy subjects: prolactin pharmacodynamics; type: in vivo, human; settings: single doses
# [8] = single ascending dose study with healthy subjects: safety and tolerability; type: in vivo, human; settings: single doses 1 to 24 mg
# [9] = system: drop seizures in patients with Lennox-Gastaut Syndrome; settings: Phase 3 studies, versus placebo; cited from earlier work
# [10] = 3 mg TID, no titration, 14 days
# [11] = 6 mg TID, no titration, 14 days
# [12] = 12 mg TID, no titration, 14 days
# [13] = 18 mg TID, no titration, 14 days
# [14] = multiple doses TID, healthy subjects
smiles,measurement,setting,value
"C[C@H]1CN2CCNCc3ccc(C(=O)NCC(F)F)c1c32 [Compound 1, (R)-N-(2,2-difluoroethyl)-7-methyl-1,2,3,4,6,7-hexahydro-[1,4]diazepino[6,7,1-hi]indole-8-carboxamide]",Tmax,clinical [1],1 to 2 h
same,AUC,clinical [1]; 3 mg TID,27.1 ng·h/mL
same,AUC(0-inf),clinical [1]; 3 mg TID,46.1 ng·h/mL
same,AUC(0-t),clinical [1]; 3 mg TID,38.6 ng·h/mL
same,Cmax,clinical [1]; 3 mg TID,6.61 ng/mL
same,Tmax,clinical [1]; 3 mg TID,1.01 h
same,half-life,clinical [1]; 3 mg TID,5.56 h
same,AUC,clinical [1]; 6 mg TID,99.8 ng·h/mL
same,AUC(0-inf),clinical [1]; 6 mg TID,152 ng·h/mL
same,AUC(0-t),clinical [1]; 6 mg TID,150 ng·h/mL
same,Cmax,clinical [1]; 6 mg TID,20.7 ng/mL
same,Tmax,clinical [1]; 6 mg TID,1.78 h
same,half-life,clinical [1]; 6 mg TID,4.81 h
same,AUC,clinical [1]; 12 mg TID,213 ng·h/mL
same,AUC(0-inf),clinical [1]; 12 mg TID,330 ng·h/mL
same,AUC(0-t),clinical [1]; 12 mg TID,327 ng·h/mL
same,Cmax,clinical [1]; 12 mg TID,44.9 ng/mL
same,Tmax,clinical [1]; 12 mg TID,1.27 h
same,half-life,clinical [1]; 12 mg TID,5.96 h
same,AUC,clinical [1]; 18 mg TID,480 ng·h/mL
same,AUC(0-inf),clinical [1]; 18 mg TID,775 ng·h/mL
same,AUC(0-t),clinical [1]; 18 mg TID,773 ng·h/mL
same,Cmax,clinical [1]; 18 mg TID,98.6 ng/mL
same,Tmax,clinical [1]; 18 mg TID,2 h
same,half-life,clinical [1]; 18 mg TID,5.64 h
same,AUC,clinical [1]; 24 mg TID,480 ng·h/mL
same,AUC(0-inf),clinical [1]; 24 mg TID,741 ng·h/mL
same,AUC(0-t),clinical [1]; 24 mg TID,737 ng·h/mL
same,Cmax,clinical [1]; 24 mg TID,107 ng/mL
same,Tmax,clinical [1]; 24 mg TID,1.04 h
same,half-life,clinical [1]; 24 mg TID,6.5 h
same,dose proportionality of peak and total exposure,[2]; single doses 1 to 24 mg,slightly greater than dose proportional especially at higher doses
same,absorption into the systemic circulation,"[2]; single oral dose, powder in capsule formulation",rapidly absorbed
same,mean percent change from baseline prolactin level at 2 hours,prolactin [3],increased with increasing doses from 3 mg to 12 mg and plateaued thereafter
same,prolactin,prolactin [3],"increased in a dose- and concentration-dependent manner, with greater increase seen after first dose"
same,CL/F Mean,[4]; [10],125 L/h
same,Cav Mean,[4]; [10],3.39 ng/mL
same,Ctrough Mean,[4]; [10],1.94 ng/mL
same,CL/F Mean,[4]; [11],66.6 L/h
same,Cav Mean,[4]; [11],12.5 ng/mL
same,Ctrough Mean,[4]; [11],7.02 ng/mL
same,CL/F Mean,[4]; [12],63.1 L/h
same,Cav Mean,[4]; [12],26.6 ng/mL
same,Ctrough Mean,[4]; [12],15.8 ng/mL
same,CL/F Mean,[4]; [13],45.9 L/h
same,Cav Mean,[4]; [13],60.0 ng/mL
same,Ctrough Mean,[4]; [13],37.7 ng/mL
same,CL/F Mean,"[4]; 24 mg TID, 3-day titration",62.9 L/h
same,Cav Mean,"[4]; 24 mg TID, 3-day titration",60.1 ng/mL
same,Ctrough Mean,"[4]; 24 mg TID, 3-day titration",34.0 ng/mL
same,dose eliminated by the renal route in 48 hours,[4]; 12/24 mg TID titration regimen,12.3%
same,accumulation upon multiple dosing,"[4]; TID regimen, listed as Study Drug",Significant accumulation; also recorded: dose dependent accumulation
same,steady-state achieved by,"[4]; doses up to 18 mg TID, in most cases",≤ 10 days
same,absorption into systemic circulation,"[4]; first dose and multiple oral doses, powder-in-capsule formulation",rapidly absorbed
same,dosing time after which most subjects were at steady state,[4]; non-titration part,10 days
same,serious adverse event,[5]; after stopping treatment with 24 mg TID,One
same,subjects discontinued due to adverse events,[5]; forty-three subjects enrolled,Three
same,most common TEAEs,[5]; [14],"headache, somnolence, dizziness, dizziness postural, micturition urgency & orthostatic hypotension"
same,severity of majority of treatment emergent adverse events (TEAEs),[5]; [14],mild to moderate
same,severe TEAEs,"[5]; occurring in 3 subjects, all after cessation of dosing",Five
same,CL renal,"clinical [6]; oral, 1 mg",50 mL/min
same,CL renal,"clinical [6]; oral, 3 mg",60.3 mL/min
same,CL renal,"clinical [6]; oral, 6 mg",57 mL/min
same,CL renal,"clinical [6]; oral, 12 mg",70.8 mL/min
same,CL renal,"clinical [6]; oral, 24 mg",62.5 mL/min
same,half-life,clinical [6]; oral,5 to 7 h
same,Cmax,"clinical [6]; oral, 1 mg",1.08 ng/mL
same,Tmax,"clinical [6]; oral, 1 mg",1.54 h
same,AUC(0-inf),"clinical [6]; oral, 3 mg",40.9 ng·h/mL
same,Cmax,"clinical [6]; oral, 3 mg",6.36 ng/mL
same,Tmax,"clinical [6]; oral, 3 mg",1.02 h
same,Vd/F,"clinical [6]; oral, 3 mg",608 L
same,half-life,"clinical [6]; oral, 3 mg",4.94 h
same,AUC(0-inf),"clinical [6]; oral, 6 mg",58.7 ng·h/mL
same,Cmax,"clinical [6]; oral, 6 mg",9.52 ng/mL
same,Tmax,"clinical [6]; oral, 6 mg",1.5 h
same,Vd/F,"clinical [6]; oral, 6 mg",1230 L
same,half-life,"clinical [6]; oral, 6 mg",6.66 h
same,AUC(0-inf),"clinical [6]; oral, 12 mg",101 ng·h/mL
same,Cmax,"clinical [6]; oral, 12 mg",17 ng/mL
same,Tmax,"clinical [6]; oral, 12 mg",1.25 h
same,Vd/F,"clinical [6]; oral, 12 mg",929 L
same,half-life,"clinical [6]; oral, 12 mg",4.67 h
same,AUC(0-inf),"clinical [6]; oral, 24 mg",288 ng·h/mL
same,Cmax,"clinical [6]; oral, 24 mg",59.3 ng/mL
same,Tmax,"clinical [6]; oral, 24 mg",1.07 h
same,Vd/F,"clinical [6]; oral, 24 mg",697 L
same,half-life,"clinical [6]; oral, 24 mg",5.09 h
same,Tmax,clinical [6]; po,1 to 1.5 h
same,prolactin levels by 24-hour postdose,prolactin [7],returned to baseline for only the 6 mg dose level
same,prolactin mean % CFB at 2 hours,prolactin [7],"increased in a dose-dependent manner, with a greater than dose proportional increase between 6 mg and 12 mg doses"
same,prolactin,prolactin [7]; within 2 h,increased within 2 h in a dose- and concentration-dependent manner
same,most common treatment emergent adverse events,[8],"headache, postural dizziness, and nausea, which were mild to moderate in severity"
CCNC(C)Cc1cccc(C(F)(F)F)c1 (stereo not shown) [fenfluramine],reduction of the frequency of drop seizures,[9],superior to placebo
